Measured values: ChEMBL document CHEMBL1132267, “Synthesis and antibacterial properties of beta-diketone acrylate bioisosteres of pseudomonic acid A” (Bioorg Med Chem Lett, 1999)
Values after ≈ are worked out from the molar mass of the structure shown.

What was measured:
[1] = test system: Isoleucine--tRNA ligase (Streptococcus pyogenes); experiment: In vitro antibacterial activity against isoleucyl-tRNA synthetase from Streptococcus pyogenes CN10
[2] = test system: Mus musculus; experiment: The compound was tested for its percentage serum binding affinity in mouse […]; assay type: functional
[3] = test system: Mus musculus; experiment: Concentration required to protect 50% of the mice from death after s.c. administration of compound tested in vivo; assay type: functional
[4] = test system: Isoleucine--tRNA ligase (Moraxella catarrhalis); experiment: In vitro antibacterial activity against isoleucyl-tRNA synthetase from Moraxella catarrhalis 1502
[5] = test system: Homo sapiens; experiment: The compound was tested for its percentage serum binding affinity in human […]; assay type: organism-based
[6] = biological target: T1, Isoleucine--tRNA ligase (Staphylococcus aureus) (UniProt P41972); experiment: In vitro antibacterial activity against isoleucyl-tRNA synthetase from Staphylococcus aureus Oxford; assay type: functional
T1 sequence (whole entry): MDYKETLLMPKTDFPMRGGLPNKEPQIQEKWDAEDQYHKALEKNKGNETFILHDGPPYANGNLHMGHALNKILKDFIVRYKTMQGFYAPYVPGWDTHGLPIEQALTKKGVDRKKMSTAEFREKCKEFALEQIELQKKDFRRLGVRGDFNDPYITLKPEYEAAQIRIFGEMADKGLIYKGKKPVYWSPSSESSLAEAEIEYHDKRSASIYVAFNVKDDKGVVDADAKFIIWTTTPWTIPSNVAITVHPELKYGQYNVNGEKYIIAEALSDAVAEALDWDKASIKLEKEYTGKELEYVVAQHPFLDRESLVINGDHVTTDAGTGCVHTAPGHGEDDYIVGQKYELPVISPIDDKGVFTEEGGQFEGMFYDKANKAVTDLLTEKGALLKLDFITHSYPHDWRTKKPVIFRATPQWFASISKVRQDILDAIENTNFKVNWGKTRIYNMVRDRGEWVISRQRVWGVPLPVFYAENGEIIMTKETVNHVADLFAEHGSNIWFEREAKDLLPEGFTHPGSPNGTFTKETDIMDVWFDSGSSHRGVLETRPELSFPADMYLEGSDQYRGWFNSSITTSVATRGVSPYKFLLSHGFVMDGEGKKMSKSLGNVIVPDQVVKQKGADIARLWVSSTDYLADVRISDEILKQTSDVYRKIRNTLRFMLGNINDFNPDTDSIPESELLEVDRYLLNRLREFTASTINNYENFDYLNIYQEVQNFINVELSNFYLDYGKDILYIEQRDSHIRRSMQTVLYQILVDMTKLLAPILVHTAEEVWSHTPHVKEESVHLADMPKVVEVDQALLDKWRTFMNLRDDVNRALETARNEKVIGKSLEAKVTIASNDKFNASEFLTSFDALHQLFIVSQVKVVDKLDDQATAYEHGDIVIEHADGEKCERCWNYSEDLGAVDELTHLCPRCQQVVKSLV

[7] = test system: Mus musculus; experiment: The area under curve in vivo in mouse blood level after oral administration at dose 50 mk/kg e-1; assay type: ADME, organism-based
[8] = test system: Mus musculus; experiment: Concentration required to protect 50% of the mice from death after oral administration of compound tested in vivo; assay type: functional
[9] = test system: Isoleucine--tRNA ligase (Haemophilus influenzae); experiment: In vitro antibacterial activity against isoleucyl-tRNA synthetase from Haemophilus influenzae Q1
[10] = test system: Mus musculus; experiment: The area under curve in vivo in mouse blood level after subcutaneous administration at dose 50 mk/kg e-1; assay type: ADME, organism-based; settings: sc
[11] = test system: Isoleucine--tRNA ligase (Streptococcus pneumoniae); experiment: In vitro antibacterial activity against isoleucyl-tRNA synthetase from Streptococcus pneumoniae PU7
[12] = test system: Haemophilus influenzae; experiment: In vitro antibacterial activity against Haemophilus influenzae Q1; assay type: functional
[13] = test system: Moraxella catarrhalis; experiment: In vitro antibacterial activity against Moraxella catarrhalis 1502; assay type: functional
[14] = test system: Streptococcus pneumoniae; experiment: In vitro antibacterial activity against Streptococcus pneumoniae PU7; assay type: functional
[15] = test system: Staphylococcus aureus; experiment: In vitro antibacterial activity against Staphylococcus aureus Oxford; assay type: functional
[16] = test system: Streptococcus pyogenes; experiment: In vitro antibacterial activity against Streptococcus pyogenes CN10; assay type: functional

Row | SMILES | MIC [1] [µg/mL] | Bound [2] [%] | CD50 [3] [mg/kg] | MIC [4] [µg/mL] | Bound [5] [%] | MIC [6] [µg/mL] | AUC [7] [ng·h/mL] | CD50 [8] [mg/kg] | MIC [9] [µg/mL] | AUC [10] [ng·h/mL] | MIC [11] [µg/mL] | MIC [12] [µg/mL] | MIC [13] [µg/mL] | MIC [14] [µg/mL] | MIC [15] [µg/mL] | MIC [16] [µg/mL]
1 | COc1ccc(C(=O)CC(=O)C[C@@H]2OC[C@H](C[C@@H]3O[C@H]3[C@@H](C)[C@H](C)O)[C@@H](O)[C@H]2O)cc1 | 0.25 (≈ 0.573 µM) | 51 | 3.8 | 0.25 (≈ 0.573 µM) | 75 | 0.5 (≈ 1.15 µM) | 5920 | 28 | 0.06 (≈ 0.137 µM) | 14900 | 0.25 (≈ 0.573 µM) | – | – | – | – | –
2 | C[C@H]([C@@H]1O[C@H]1C[C@H]1CO[C@@H](CC(=O)CC(=O)c2ccoc2)[C@H](O)[C@@H]1O)[C@H](C)O | – | – | – | – | – | – | – | – | – | – | – | 0.13 (≈ 0.328 µM) | 2 (≈ 5.04 µM) | 2 (≈ 5.04 µM) | 1 (≈ 2.52 µM) | 1 (≈ 2.52 µM)
3 | C[C@H]([C@@H]1O[C@H]1C[C@H]1CO[C@@H](CC(=O)CC(=O)c2ccccc2)[C@H](O)[C@@H]1O)[C@H](C)O | – | – | – | – | – | – | – | – | – | – | – | 0.25 (≈ 0.615 µM) | 1 (≈ 2.46 µM) | 0.5 (≈ 1.23 µM) | 1 (≈ 2.46 µM) | 0.5 (≈ 1.23 µM)
4 | C[C@H]([C@@H]1O[C@H]1C[C@H]1CO[C@@H](CC(=O)CC(=O)C2=CCCCC2)[C@H](O)[C@@H]1O)[C@H](C)O | – | – | – | – | – | – | – | – | – | – | – | 0.13 (≈ 0.317 µM) | 2 (≈ 4.87 µM) | 0.5 (≈ 1.22 µM) | 2 (≈ 4.87 µM) | 0.5 (≈ 1.22 µM)
5 | C[C@H]([C@@H]1O[C@H]1C[C@H]1CO[C@@H](CC(=O)CC(=O)c2ccc(N(C)C)cc2)[C@H](O)[C@@H]1O)[C@H](C)O | – | – | – | – | – | – | – | – | – | – | – | 0.06 (≈ 0.133 µM) | 0.5 (≈ 1.11 µM) | 0.5 (≈ 1.11 µM) | 2 (≈ 4.45 µM) | 1 (≈ 2.22 µM)
6 | C[C@H]([C@@H]1O[C@H]1C[C@H]1CO[C@@H](CC(=O)CC(=O)c2ccc(F)cc2)[C@H](O)[C@@H]1O)[C@H](C)O | 0.25 (≈ 0.589 µM) | – | 12 | 0.5 (≈ 1.18 µM) | 80 | 0.5 (≈ 1.18 µM) | 4930 | 19 | 0.06 (≈ 0.141 µM) | 6800 | 0.13 (≈ 0.306 µM) | – | – | – | – | –
7 | C[C@H]([C@@H]1O[C@H]1C[C@H]1CO[C@@H](CC(=O)CC(=O)c2ccc(N(C)C)nc2)[C@H](O)[C@@H]1O)[C@H](C)O | 1 (≈ 2.22 µM) | 66 | 12 | 1 (≈ 2.22 µM) | 84 | 1 (≈ 2.22 µM) | 7180 | 23 | 0.06 (≈ 0.133 µM) | 13300 | 0.5 (≈ 1.11 µM) | – | – | – | – | –
8 | COc1ccc(C(=O)CC(=O)C[C@@H]2OC[C@H](C[C@@H]3O[C@H]3[C@@H](C)[C@H](C)O)[C@@H](O)[C@H]2O)cn1 | – | – | – | – | – | – | – | – | – | – | – | 0.13 (≈ 0.297 µM) | 0.25 (≈ 0.571 µM) | 0.13 (≈ 0.297 µM) | 1 (≈ 2.29 µM) | 0.13 (≈ 0.297 µM)
9 | COc1ccc(C(=O)/C=C(\C)C[C@@H]2OC[C@H](C[C@@H]3O[C@H]3[C@@H](C)[C@H](C)O)[C@@H](O)[C@H]2O)cc1 | 0.25 (≈ 0.575 µM) | 79 | 12 | 0.25 (≈ 0.575 µM) | 96 | 0.5 (≈ 1.15 µM) | 1770 | 18 | 0.03 (≈ 0.069 µM) | 5600 | 0.25 (≈ 0.575 µM) | – | – | – | – | –
10 | C[C@H]([C@@H]1O[C@H]1C[C@H]1CO[C@@H](CC(=O)CC(=O)c2cnn(C)c2)[C@H](O)[C@@H]1O)[C@H](C)O | – | – | – | – | – | – | – | – | – | – | – | 0.13 (≈ 0.317 µM) | 0.5 (≈ 1.22 µM) | 1 (≈ 2.44 µM) | 4 (≈ 9.74 µM) | 1 (≈ 2.44 µM)
11 | CCOC(OCC)c1ccc(C(=O)CC(=O)C[C@@H]2OC[C@H](C[C@@H]3O[C@H]3[C@@H](C)[C@H](C)O)[C@@H](O)[C@H]2O)cc1 | – | – | – | – | – | – | – | – | – | – | – | 1 (≈ 1.97 µM) | 0.5 (≈ 0.983 µM) | 1 (≈ 1.97 µM) | 1 (≈ 1.97 µM) | 0.5 (≈ 0.983 µM)
12 | CCCCC(=O)CC(=O)C[C@@H]1OC[C@H](C[C@@H]2O[C@H]2[C@@H](C)[C@H](C)O)[C@@H](O)[C@H]1O | – | – | – | – | – | – | – | – | – | – | – | 0.5 (≈ 1.29 µM) | 2 (≈ 5.17 µM) | 8 (≈ 20.7 µM) | 8 (≈ 20.7 µM) | 2 (≈ 5.17 µM)
13 | C[C@H]([C@@H]1O[C@H]1C[C@H]1CO[C@@H](CC(=O)CC(=O)c2ccsc2)[C@H](O)[C@@H]1O)[C@H](C)O | – | – | – | – | – | – | – | – | – | – | – | 0.13 (≈ 0.315 µM) | 1 (≈ 2.42 µM) | 0.5 (≈ 1.21 µM) | 1 (≈ 2.42 µM) | 1 (≈ 2.42 µM)
14 | C[C@H]([C@@H]1O[C@H]1C[C@H]1CO[C@@H](CC(=O)CC(=O)c2cnc(N(C)C)nc2)[C@H](O)[C@@H]1O)[C@H](C)O | – | – | – | – | – | – | – | – | – | – | – | 0.25 (≈ 0.554 µM) | 2 (≈ 4.43 µM) | 1 (≈ 2.21 µM) | 2 (≈ 4.43 µM) | 1 (≈ 2.21 µM)
15 | COc1ccc(C(=O)/C=C/C[C@@H]2OC[C@H](C[C@@H]3O[C@H]3[C@@H](C)[C@H](C)O)[C@@H](O)[C@H]2O)cc1 | – | – | – | – | – | – | – | – | – | – | – | 0.13 (≈ 0.309 µM) | 2 (≈ 4.76 µM) | 0.25 (≈ 0.595 µM) | 1 (≈ 2.38 µM) | 0.5 (≈ 1.19 µM)
16 | COc1ccc(/C=C/C(=O)C[C@@H]2OC[C@H](C[C@@H]3O[C@H]3[C@@H](C)[C@H](C)O)[C@@H](O)[C@H]2O)cc1 | – | – | – | – | – | – | – | – | – | – | – | 1 (≈ 2.38 µM) | 16 (≈ 38 µM) | 8 (≈ 19 µM) | 128 (≈ 304 µM) | 8 (≈ 19 µM)
17 | C[C@H]([C@@H]1O[C@H]1C[C@H]1CO[C@@H](CC(=O)CC(=O)c2ccc(C#N)cc2)[C@H](O)[C@@H]1O)[C@H](C)O | – | – | – | – | – | – | – | – | – | – | – | 0.06 (≈ 0.139 µM) | 0.5 (≈ 1.16 µM) | 0.25 (≈ 0.579 µM) | 2 (≈ 4.64 µM) | 0.13 (≈ 0.301 µM)
18 | C/C(=C\C(=O)OCCCCCCCCC(=O)O)C[C@@H]1OC[C@H](C[C@@H]2O[C@H]2[C@@H](C)[C@H](C)O)[C@@H](O)[C@H]1O [MUPIROCIN] | – | – | – | – | – | – | – | – | – | – | – | 0.06 (≈ 0.12 µM) | 0.13 (≈ 0.26 µM) | 0.13 (≈ 0.26 µM) | 0.13 (≈ 0.26 µM) | 0.13 (≈ 0.26 µM)
